Reference: patent publication US11466020B2, “Compounds and compositions for inhibition and elimination of Zika infection and uses for same” (Cornell University, priority 2017, dated 2022)
Where a name gives a salt, the structure may show the parent alone.

System: ZIKV MR766
Test: Elimination of ZIKV from infected hNPCs (drug applied 2 h post infection, 3 days drug, 3 days drug-free)
Type: cell-based, Zika virus
Conditions: for ZIKV infection of hNPCs at day 6: 3 days treatment followed by 3 days culture without drug; for ZIKV infection rate of hNPCs at day 3: day 3 of treatment
Protocol: (A) Scheme to evaluate the elimination of ZIKV. At day 0, hNPCs were infected with ZIKV for 2 h. After removal of ZIKV infection medium, hNPCs were treated with drug candidates. At day 3, the culture medium was changed to fresh medium without compounds. The cells were maintained in drug-free culture until day 6 and used for immunohistochemistry and qRT-PCR. (B and C) Inhibitory curve and IC50 of HH calculated based on the infection rate (B) and normalized cell viability (C) (n=6). (D and E) Immunocytochemistry analysis (D) and the quantification of infection rate, cell apoptosis rate, and total cell number (E) of hNPCs on day 3 and day 6. Cells was fixed and stained with cleaved Caspase-3 (CAS3), ZIKV E and DAPI. Scale bars, 100 μm. (F) qRT-PCR analysis to monitor the total ZIKV vRNA in the supernatant of hNPC cultures on day 6. Scale bars, 200 μm. (n=3). (G) Vero cell reinfection assay to monitor the infective ZIKV vRNA in the supernatant of hNPC cultures at day 6 after ZIKV infection. Scale bars, 200 μm. (n=3). (H) Quantification of ZIKV infectious particles produced by ZIKV-infected hNPCs at day 6 by the Vero cell reinfection assay. (I) hNPCs with or without ZIKV infection treated with HH maintain hNPC marker expression and differentiation capacity. hNPCs with or without ZIKV MR766 infection were treated with 25 μM HH or DMSO for 3 days and then stained for SOX2, NESTIN and with DAPI. hNPCs with or without ZIKV infection and treated with HH or DMSO for 3 days were differentiated to cortical neurons. The cortical neurons were then fixed and stained for MAP2, TUJ1 and with DAPI. Scale bars, 100 μm. (n=3). (J) ZIKV (MR766 strain) dynamics in hNPCs. qRT-PCR analysis to quantify the total and replicating (−) strand vRNAs in the hNPCs at different time points post infection. […] (K) qRT-PCR analysis of hNPCs, on which 25 μM HH or DMSO were added at 24 h, 36 h and 48 h post-ZIKV (MR766 strain) infection and maintained for additional 3 days. p values were calculated by unpaired two-tailed Student's t-test. *p<0.05, **p<0.01 and ***p<0.001, if not mentioned specifically.
HH eliminates virus from ZIKV infected hNPCs. To determine whether the drug candidates are capable of eliminating ZIKV in previously infected hNPCs, HH or AQ was applied 2 h post ZIKV infection (FIG. 2A).
ZIKV-infected hNPCs were treated with HH or AQ for 3 days, followed by 3 days culture in drug-free medium. Immunocytochemical analysis of ZIKV E, cleaved-caspase-3 (CAS3) and DAPI were performed at day 0 (just before ZIKV infection), day 3, and day 6 to measure the ZIKV infection rate, cell death rate and total cell numbers, respectively. […] In addition, neither ZIKV vRNA, as indicated by qRT-PCR (FIG. 2F), or production of infectious ZIKV, as indicated by a Vero cell re-infection assay, was detected in day 6 supernatant of HH-treated conditions (FIGS. 2G and 2H). […] In contrast, hNPCs without HH treatment underwent significant cell death after 3 days of ZIKV infection, and there were no cells detected after cortical neuron differentiation (data not shown).
Generation of inhibitory curves. hNPCs were plated on 96-well plates with Accutase digestion at 8.5×10^4/cm^2 density and incubated overnight. For generating inhibitory curves of compound for inhibiting ZIKV infection, cells were first treated with DMSO or different doses of hit compounds for 1 h before ZIKV infection. The cells were then infected with ZIKV MR766 at a MOI=0.125. After 2 h of infection, the virus-containing medium was replaced by fresh virus-free medium and compounds were added again to the same wells. For generating inhibitory curves of compound for eliminating ZIKV, compounds were instead added after ZIKV infection. After 3 days incubation, the cells were fixed and stained for ZIKV envelope protein (ZIKV E) and DAPI was used to stain cell nuclei. Plates were analyzed with the ImageXpress^MICRO Automated High-Content Analysis System. IC50 was calculated using MasterPlex Reader Fit 2010.

[1] = compound applied 2 h post ZIKV infection

Row | Compound | ZIKV infection of hNPCs at day 6 | elimination of ZIKV infection in previously infected hNPCs [1] | ZIKV infection rate of hNPCs at day 3 | IC50 for eliminating versus inhibiting ZIKV [1]
1 | CCN(CC)Cc1cc(Nc2ccnc3cc(Cl)ccc23)ccc1O [AQ, amodiaquine dihydrochloride dihydrate] | comparable to the level of infection in the DMSO control condition | capable of eliminating ZIKV infection | undetectable levels | 
2 | CN1CCC2=C[C@H](O)[C@H]3OC(=O)c4cc5c(cc4[C@H]3[C@@H]21)OCO5 [HH, hippeastrine hydrobromide] | remained undetectable | capable of eliminating ZIKV infection | undetectable levels | comparable IC50 values
